Measured values published in the supplement of paper PMC9780213.

Key:
Settings in all cases: treatment time: 24 h
U2OS-LMNB1-TUBA1B-ACTB = assay: cell count relative to DMSO control (panel C1, DRAQ5/ER stain) (fraction of control); higher = more cells (less toxicity)
Experimental: (§1)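 U2OS-derived cells in 384-well plates were treated for 24 h with a 7-point 2-fold dilution series (top dose 20 µM for most compounds; final max DMSO 1%), then fixed, stained in four marker panels and imaged on a Cellomics ArrayScan. Cell count per treatment (three replicate plates merged) is given as a fraction of DMSO control. Panel A used parental U2OS, panel B U2OS-mOrange2-Peroxisome, panel C1 U2OS-LMNB1-TUBA1B-ACTB (DRAQ5 nuclei).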

U2OS-mOrange2-Peroxisome = assay: cell count relative to DMSO control (panel B, lysosome/peroxisome/lipid stain) (fraction of control); higher = more cells (less toxicity)
Experimental: as §1

U2OS = assay: cell count relative to DMSO control (panel A, nuclei/RNA/PMG/mitochondria stain) (fraction of control); higher = more cells (less toxicity)
Experimental: as §1

Nc1ccn([C@@H]2O[C@H](CO)[C@@H](O)C2(F)F)c(=O)n1 [gemcitabine]
cell count (U2OS-LMNB1-TUBA1B-ACTB; 0.3125 µM): 1.03 | cell count (U2OS-LMNB1-TUBA1B-ACTB; 0.625 µM): 0.582 | cell count (U2OS-LMNB1-TUBA1B-ACTB; 1.25 µM): 0.411 | cell count (U2OS-LMNB1-TUBA1B-ACTB; 2.5 µM): 0.391 | cell count (U2OS-LMNB1-TUBA1B-ACTB; 5 µM): 0.383 | cell count (U2OS-LMNB1-TUBA1B-ACTB; 10 µM): 0.396 | cell count (U2OS-LMNB1-TUBA1B-ACTB; 20 µM): 0.388 | cell count (U2OS-mOrange2-Peroxisome; 0.3125 µM): 0.811 | cell count (U2OS-mOrange2-Peroxisome; 0.625 µM): 0.529 | cell count (U2OS-mOrange2-Peroxisome; 1.25 µM): 0.498 | cell count (U2OS-mOrange2-Peroxisome; 2.5 µM): 0.576 | cell count (U2OS-mOrange2-Peroxisome; 5 µM): 0.543 | cell count (U2OS-mOrange2-Peroxisome; 10 µM): 0.595 | cell count (U2OS-mOrange2-Peroxisome; 20 µM): 0.496 | cell count (U2OS; 0.3125 µM): 1.03 | cell count (U2OS; 0.625 µM): 0.658 | cell count (U2OS; 1.25 µM): 0.435 | cell count (U2OS; 2.5 µM): 0.374 | cell count (U2OS; 5 µM): 0.396 | cell count (U2OS; 10 µM): 0.379 | cell count (U2OS; 20 µM): 0.412

N#CC(C#N)=NNc1ccc(OC(F)(F)F)cc1 [FCCP]
cell count (U2OS-LMNB1-TUBA1B-ACTB; 0.3125 µM): 1.11 | cell count (U2OS-LMNB1-TUBA1B-ACTB; 0.625 µM): 1.13 | cell count (U2OS-LMNB1-TUBA1B-ACTB; 1.25 µM): 1.01 | cell count (U2OS-LMNB1-TUBA1B-ACTB; 2.5 µM): 1.05 | cell count (U2OS-LMNB1-TUBA1B-ACTB; 5 µM): 0.894 | cell count (U2OS-LMNB1-TUBA1B-ACTB; 10 µM): 0.666 | cell count (U2OS-LMNB1-TUBA1B-ACTB; 20 µM): 0.651 | cell count (U2OS-mOrange2-Peroxisome; 0.3125 µM): 0.804 | cell count (U2OS-mOrange2-Peroxisome; 0.625 µM): 0.769 | cell count (U2OS-mOrange2-Peroxisome; 1.25 µM): 0.715 | cell count (U2OS-mOrange2-Peroxisome; 2.5 µM): 0.625 | cell count (U2OS-mOrange2-Peroxisome; 5 µM): 0.802 | cell count (U2OS-mOrange2-Peroxisome; 10 µM): 0.659 | cell count (U2OS-mOrange2-Peroxisome; 20 µM): 0.618 | cell count (U2OS; 0.3125 µM): 0.961 | cell count (U2OS; 0.625 µM): 0.945 | cell count (U2OS; 1.25 µM): 0.883 | cell count (U2OS; 2.5 µM): 0.867 | cell count (U2OS; 5 µM): 0.897 | cell count (U2OS; 10 µM): 0.622 | cell count (U2OS; 20 µM): 0.704

CCCCCCCCCCCCCCCCCCOP(=O)([O-])OC1CC[N+](C)(C)CC1 [perifosine]
cell count (U2OS-LMNB1-TUBA1B-ACTB; 0.3125 µM): 1.11 | cell count (U2OS-LMNB1-TUBA1B-ACTB; 0.625 µM): 1.15 | cell count (U2OS-LMNB1-TUBA1B-ACTB; 1.25 µM): 1.09 | cell count (U2OS-LMNB1-TUBA1B-ACTB; 2.5 µM): 0.996 | cell count (U2OS-LMNB1-TUBA1B-ACTB; 5 µM): 1.01 | cell count (U2OS-LMNB1-TUBA1B-ACTB; 10 µM): 0.753 | cell count (U2OS-LMNB1-TUBA1B-ACTB; 20 µM): 0.363 | cell count (U2OS-mOrange2-Peroxisome; 0.3125 µM): 0.846 | cell count (U2OS-mOrange2-Peroxisome; 0.625 µM): 0.987 | cell count (U2OS-mOrange2-Peroxisome; 1.25 µM): 0.869 | cell count (U2OS-mOrange2-Peroxisome; 2.5 µM): 0.928 | cell count (U2OS-mOrange2-Peroxisome; 5 µM): 1.12 | cell count (U2OS-mOrange2-Peroxisome; 10 µM): 0.704 | cell count (U2OS-mOrange2-Peroxisome; 20 µM): 0.364 | cell count (U2OS; 0.3125 µM): 0.989 | cell count (U2OS; 0.625 µM): 1.07 | cell count (U2OS; 1.25 µM): 1.02 | cell count (U2OS; 2.5 µM): 0.99 | cell count (U2OS; 5 µM): 0.979 | cell count (U2OS; 10 µM): 0.592 | cell count (U2OS; 20 µM): 0.285

Fc1cc(F)c2c(c1)[C@H]1C=CC[C@H]1C(c1cccnc1)N2 (stereo partly drawn) [golgicide-A]
cell count (U2OS-LMNB1-TUBA1B-ACTB; 0.3125 µM): 0.952 | cell count (U2OS-LMNB1-TUBA1B-ACTB; 0.625 µM): 1.05 | cell count (U2OS-LMNB1-TUBA1B-ACTB; 1.25 µM): 0.982 | cell count (U2OS-LMNB1-TUBA1B-ACTB; 2.5 µM): 1.1 | cell count (U2OS-LMNB1-TUBA1B-ACTB; 5 µM): 1.14 | cell count (U2OS-LMNB1-TUBA1B-ACTB; 10 µM): 1.05 | cell count (U2OS-LMNB1-TUBA1B-ACTB; 20 µM): 0.778 | cell count (U2OS-mOrange2-Peroxisome; 0.3125 µM): 0.814 | cell count (U2OS-mOrange2-Peroxisome; 0.625 µM): 0.73 | cell count (U2OS-mOrange2-Peroxisome; 1.25 µM): 0.804 | cell count (U2OS-mOrange2-Peroxisome; 2.5 µM): 0.719 | cell count (U2OS-mOrange2-Peroxisome; 5 µM): 0.89 | cell count (U2OS-mOrange2-Peroxisome; 10 µM): 0.916 | cell count (U2OS-mOrange2-Peroxisome; 20 µM): 0.833 | cell count (U2OS; 0.3125 µM): 0.981 | cell count (U2OS; 0.625 µM): 1 | cell count (U2OS; 1.25 µM): 0.929 | cell count (U2OS; 2.5 µM): 1.06 | cell count (U2OS; 5 µM): 1.03 | cell count (U2OS; 10 µM): 0.826 | cell count (U2OS; 20 µM): 0.566

CC(C)n1c(/C=C/C(O)CC(O)CC(=O)O)c(-c2ccc(F)cc2)c2ccccc21 (stereo not drawn) [fluvastatin]
cell count (U2OS-LMNB1-TUBA1B-ACTB; 0.3125 µM): 1.01 | cell count (U2OS-LMNB1-TUBA1B-ACTB; 0.625 µM): 0.939 | cell count (U2OS-LMNB1-TUBA1B-ACTB; 1.25 µM): 0.943 | cell count (U2OS-LMNB1-TUBA1B-ACTB; 2.5 µM): 0.931 | cell count (U2OS-LMNB1-TUBA1B-ACTB; 5 µM): 0.899 | cell count (U2OS-LMNB1-TUBA1B-ACTB; 10 µM): 0.892 | cell count (U2OS-LMNB1-TUBA1B-ACTB; 20 µM): 0.849 | cell count (U2OS-mOrange2-Peroxisome; 0.3125 µM): 0.991 | cell count (U2OS-mOrange2-Peroxisome; 0.625 µM): 0.839 | cell count (U2OS-mOrange2-Peroxisome; 1.25 µM): 0.835 | cell count (U2OS-mOrange2-Peroxisome; 2.5 µM): 0.93 | cell count (U2OS-mOrange2-Peroxisome; 5 µM): 0.815 | cell count (U2OS-mOrange2-Peroxisome; 10 µM): 0.872 | cell count (U2OS-mOrange2-Peroxisome; 20 µM): 0.22 | cell count (U2OS; 0.3125 µM): 0.901 | cell count (U2OS; 0.625 µM): 0.848 | cell count (U2OS; 1.25 µM): 0.867 | cell count (U2OS; 2.5 µM): 0.777 | cell count (U2OS; 5 µM): 0.826 | cell count (U2OS; 10 µM): 0.702 | cell count (U2OS; 20 µM): 0.441

Cc1c(Cl)cccc1Nc1ccccc1C(=O)O [tolfenamic-acid]
cell count (U2OS-LMNB1-TUBA1B-ACTB; 0.3125 µM): 1.01 | cell count (U2OS-LMNB1-TUBA1B-ACTB; 0.625 µM): 1.1 | cell count (U2OS-LMNB1-TUBA1B-ACTB; 1.25 µM): 1.11 | cell count (U2OS-LMNB1-TUBA1B-ACTB; 2.5 µM): 1.07 | cell count (U2OS-LMNB1-TUBA1B-ACTB; 5 µM): 0.998 | cell count (U2OS-LMNB1-TUBA1B-ACTB; 10 µM): 1.12 | cell count (U2OS-LMNB1-TUBA1B-ACTB; 20 µM): 1.03 | cell count (U2OS-mOrange2-Peroxisome; 0.3125 µM): 0.753 | cell count (U2OS-mOrange2-Peroxisome; 0.625 µM): 0.959 | cell count (U2OS-mOrange2-Peroxisome; 1.25 µM): 0.883 | cell count (U2OS-mOrange2-Peroxisome; 2.5 µM): 0.953 | cell count (U2OS-mOrange2-Peroxisome; 5 µM): 0.933 | cell count (U2OS-mOrange2-Peroxisome; 10 µM): 1.01 | cell count (U2OS-mOrange2-Peroxisome; 20 µM): 1.22 | cell count (U2OS; 0.3125 µM): 0.992 | cell count (U2OS; 0.625 µM): 1.06 | cell count (U2OS; 1.25 µM): 1.03 | cell count (U2OS; 2.5 µM): 1.1 | cell count (U2OS; 5 µM): 1.04 | cell count (U2OS; 10 µM): 1.03 | cell count (U2OS; 20 µM): 0.963

COc1cc(NS(C)(=O)=O)ccc1Nc1c2ccccc2nc2ccccc12 [amsacrine]
cell count (U2OS-LMNB1-TUBA1B-ACTB; 0.3125 µM): 0.954 | cell count (U2OS-LMNB1-TUBA1B-ACTB; 0.625 µM): 0.858 | cell count (U2OS-LMNB1-TUBA1B-ACTB; 1.25 µM): 0.513 | cell count (U2OS-LMNB1-TUBA1B-ACTB; 2.5 µM): 0.448 | cell count (U2OS-LMNB1-TUBA1B-ACTB; 5 µM): 0.441 | cell count (U2OS-LMNB1-TUBA1B-ACTB; 10 µM): 0.402 | cell count (U2OS-LMNB1-TUBA1B-ACTB; 20 µM): 0.373 | cell count (U2OS-mOrange2-Peroxisome; 0.3125 µM): 0.619 | cell count (U2OS-mOrange2-Peroxisome; 0.625 µM): 0.639 | cell count (U2OS-mOrange2-Peroxisome; 1.25 µM): 0.486 | cell count (U2OS-mOrange2-Peroxisome; 2.5 µM): 0.428 | cell count (U2OS-mOrange2-Peroxisome; 5 µM): 0.312 | cell count (U2OS-mOrange2-Peroxisome; 10 µM): 0.203 | cell count (U2OS-mOrange2-Peroxisome; 20 µM): 0.142 | cell count (U2OS; 0.3125 µM): 1.04 | cell count (U2OS; 0.625 µM): 0.838 | cell count (U2OS; 1.25 µM): 0.405 | cell count (U2OS; 2.5 µM): 0.402 | cell count (U2OS; 5 µM): 0.322 | cell count (U2OS; 10 µM): 0.359 | cell count (U2OS; 20 µM): 0.329

C[C@H]1O[C@@H](O[C@H]2[C@@H](O)C[C@H](O[C@H]3[C@@H](O)C[C@H](O[C@H]4CC[C@@]5(C)[C@H](CC[C@@H]6[C@@H]5CC[C@]5(C)[C@@H](C7=CC(=O)OC7)CC[C@]65O)C4)O[C@@H]3C)O[C@@H]2C)C[C@H](O)[C@@H]1O [digitoxin]
cell count (U2OS-LMNB1-TUBA1B-ACTB; 0.07812 µM): 0.905 | cell count (U2OS-LMNB1-TUBA1B-ACTB; 0.15625 µM): 1.04 | cell count (U2OS-LMNB1-TUBA1B-ACTB; 0.3125 µM): 1.03 | cell count (U2OS-LMNB1-TUBA1B-ACTB; 0.625 µM): 1.05 | cell count (U2OS-LMNB1-TUBA1B-ACTB; 1.25 µM): 1.02 | cell count (U2OS-LMNB1-TUBA1B-ACTB; 2.5 µM): 1.11 | cell count (U2OS-LMNB1-TUBA1B-ACTB; 5 µM): 1.12 | cell count (U2OS-mOrange2-Peroxisome; 0.07812 µM): 1.24 | cell count (U2OS-mOrange2-Peroxisome; 0.15625 µM): 1.23 | cell count (U2OS-mOrange2-Peroxisome; 0.3125 µM): 0.888 | cell count (U2OS-mOrange2-Peroxisome; 0.625 µM): 1.04 | cell count (U2OS-mOrange2-Peroxisome; 1.25 µM): 1.01 | cell count (U2OS-mOrange2-Peroxisome; 2.5 µM): 1.09 | cell count (U2OS-mOrange2-Peroxisome; 5 µM): 1.02 | cell count (U2OS; 0.07812 µM): 1.07 | cell count (U2OS; 0.15625 µM): 1.02 | cell count (U2OS; 0.3125 µM): 1.04 | cell count (U2OS; 0.625 µM): 1.11 | cell count (U2OS; 1.25 µM): 1.13 | cell count (U2OS; 2.5 µM): 1.09 | cell count (U2OS; 5 µM): 1.11
